Tests used:
Format in all cases: binding
panel of 442 kinases [1] = molecular target: T1, panel of 442 kinases (Homo sapiens, UniProt O75582); conditions: Compound Concentration 10 µM
T1 construct: purchased KINOMEscan
Excerpt: (§1) We assessed the selectivity of members of this scaffold using the KINOMEscan methodology across a near comprehensive panel of 442 kinases [[18,27]].

panel of 442 kinases [2] = molecular target: T2, panel of 442 kinases (Homo sapiens, UniProt P37173); conditions: kinase TGFBR2; compound concentration 10 µM
T2 construct: purchased KINOMEscan
Excerpt: as §1

panel of 442 kinases [3] = molecular target: T3, panel of 442 kinases (Homo sapiens, UniProt P42336, E545K); conditions: Compound Concentration 10 µM
T3 construct: purchased KINOMEscan
Excerpt: as §1

panel of 442 kinases [4] = molecular target: T4, panel of 442 kinases (Homo sapiens, UniProt P53671); conditions: Compound Concentration 10 µM
T4 construct: purchased KINOMEscan
Excerpt: as §1

T2 sequence (P37173 23-567): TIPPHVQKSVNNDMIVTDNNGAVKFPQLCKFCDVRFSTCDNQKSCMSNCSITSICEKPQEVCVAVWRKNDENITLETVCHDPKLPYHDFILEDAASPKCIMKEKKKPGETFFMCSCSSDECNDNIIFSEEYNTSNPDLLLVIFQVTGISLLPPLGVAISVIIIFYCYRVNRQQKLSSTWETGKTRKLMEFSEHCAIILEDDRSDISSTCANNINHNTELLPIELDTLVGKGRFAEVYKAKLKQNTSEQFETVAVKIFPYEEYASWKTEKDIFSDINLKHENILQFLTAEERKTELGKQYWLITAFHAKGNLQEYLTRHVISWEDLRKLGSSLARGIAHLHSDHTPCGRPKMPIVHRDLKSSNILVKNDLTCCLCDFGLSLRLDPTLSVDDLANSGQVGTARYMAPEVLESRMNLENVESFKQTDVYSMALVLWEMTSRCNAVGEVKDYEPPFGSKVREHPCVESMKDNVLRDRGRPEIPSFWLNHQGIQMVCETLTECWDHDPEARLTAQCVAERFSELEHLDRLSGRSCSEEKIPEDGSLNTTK
T1 sequence (O75582 whole entry): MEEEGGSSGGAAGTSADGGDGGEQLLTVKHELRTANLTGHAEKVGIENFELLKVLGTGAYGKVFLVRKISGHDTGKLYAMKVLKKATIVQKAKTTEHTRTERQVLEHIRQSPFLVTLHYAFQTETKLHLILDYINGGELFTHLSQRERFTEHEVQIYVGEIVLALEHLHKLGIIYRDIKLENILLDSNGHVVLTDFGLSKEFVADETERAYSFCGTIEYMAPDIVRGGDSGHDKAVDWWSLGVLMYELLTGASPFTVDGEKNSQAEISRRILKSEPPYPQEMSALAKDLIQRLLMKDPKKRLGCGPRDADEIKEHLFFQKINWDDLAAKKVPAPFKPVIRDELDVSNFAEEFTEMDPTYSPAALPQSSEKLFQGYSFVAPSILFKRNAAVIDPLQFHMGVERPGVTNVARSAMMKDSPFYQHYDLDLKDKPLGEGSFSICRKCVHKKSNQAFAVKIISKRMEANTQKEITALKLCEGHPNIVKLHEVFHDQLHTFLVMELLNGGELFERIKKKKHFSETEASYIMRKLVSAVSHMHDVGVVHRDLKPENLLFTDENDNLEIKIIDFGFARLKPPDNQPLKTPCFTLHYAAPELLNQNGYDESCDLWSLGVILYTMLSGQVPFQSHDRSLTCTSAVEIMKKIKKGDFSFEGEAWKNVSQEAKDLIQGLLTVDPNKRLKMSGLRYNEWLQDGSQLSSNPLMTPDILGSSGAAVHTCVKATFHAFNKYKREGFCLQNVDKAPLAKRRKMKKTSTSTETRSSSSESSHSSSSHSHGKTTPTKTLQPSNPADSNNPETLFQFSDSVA
T3 sequence (P42336 whole entry E545K): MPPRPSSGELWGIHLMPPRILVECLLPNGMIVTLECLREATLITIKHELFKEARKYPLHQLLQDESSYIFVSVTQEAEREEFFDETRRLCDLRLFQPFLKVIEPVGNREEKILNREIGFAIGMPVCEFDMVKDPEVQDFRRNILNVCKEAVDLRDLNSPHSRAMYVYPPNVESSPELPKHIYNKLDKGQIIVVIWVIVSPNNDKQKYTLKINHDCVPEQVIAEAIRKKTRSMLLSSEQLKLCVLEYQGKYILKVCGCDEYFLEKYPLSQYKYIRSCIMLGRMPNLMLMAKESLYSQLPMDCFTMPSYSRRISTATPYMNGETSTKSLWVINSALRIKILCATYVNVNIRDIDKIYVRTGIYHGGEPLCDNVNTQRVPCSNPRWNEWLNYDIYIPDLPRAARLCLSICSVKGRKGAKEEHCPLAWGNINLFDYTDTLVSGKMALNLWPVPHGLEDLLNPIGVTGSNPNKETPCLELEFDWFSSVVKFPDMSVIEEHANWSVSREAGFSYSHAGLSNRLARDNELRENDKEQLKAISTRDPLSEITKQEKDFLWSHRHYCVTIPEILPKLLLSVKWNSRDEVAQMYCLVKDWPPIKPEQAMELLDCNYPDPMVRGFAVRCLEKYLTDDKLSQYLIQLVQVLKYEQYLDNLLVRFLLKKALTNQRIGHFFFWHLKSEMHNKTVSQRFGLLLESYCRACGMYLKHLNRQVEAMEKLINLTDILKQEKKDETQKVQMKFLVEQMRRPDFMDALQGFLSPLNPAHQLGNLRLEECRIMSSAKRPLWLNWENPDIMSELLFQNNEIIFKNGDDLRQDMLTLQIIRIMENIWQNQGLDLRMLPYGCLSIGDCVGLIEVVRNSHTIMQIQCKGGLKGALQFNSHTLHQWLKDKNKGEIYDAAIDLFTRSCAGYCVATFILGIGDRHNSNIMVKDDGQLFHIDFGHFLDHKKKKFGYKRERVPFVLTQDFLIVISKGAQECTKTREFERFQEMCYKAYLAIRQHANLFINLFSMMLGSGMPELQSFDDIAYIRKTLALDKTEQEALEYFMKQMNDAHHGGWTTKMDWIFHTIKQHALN
T4 sequence (P53671 whole entry): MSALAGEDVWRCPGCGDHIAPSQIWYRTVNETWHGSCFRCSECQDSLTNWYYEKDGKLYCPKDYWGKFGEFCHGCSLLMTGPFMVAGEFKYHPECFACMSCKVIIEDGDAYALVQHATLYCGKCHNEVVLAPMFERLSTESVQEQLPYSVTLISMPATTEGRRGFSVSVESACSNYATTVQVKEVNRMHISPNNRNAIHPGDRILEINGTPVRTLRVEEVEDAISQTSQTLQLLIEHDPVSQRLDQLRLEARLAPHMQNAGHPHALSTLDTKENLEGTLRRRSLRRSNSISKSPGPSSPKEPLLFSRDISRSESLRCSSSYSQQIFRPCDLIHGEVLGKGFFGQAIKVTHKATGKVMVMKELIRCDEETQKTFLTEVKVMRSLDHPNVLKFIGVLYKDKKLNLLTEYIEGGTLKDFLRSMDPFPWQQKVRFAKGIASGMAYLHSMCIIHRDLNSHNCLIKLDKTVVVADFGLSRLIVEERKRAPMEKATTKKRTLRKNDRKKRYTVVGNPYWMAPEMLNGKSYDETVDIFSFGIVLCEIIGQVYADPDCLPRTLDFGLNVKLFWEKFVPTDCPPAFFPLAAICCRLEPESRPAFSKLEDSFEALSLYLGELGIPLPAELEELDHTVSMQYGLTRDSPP

Compound	KINOMEscan: RPS6KA5(Kin.Dom.1-N-terminal) (panel of 442 kinases [1])	KINOMEscan: RPS6KA5(Kin.Dom.2-C-terminal) (panel of 442 kinases [1])	% Ctrl, TGFBR2 (panel of 442 kinases [2])	KINOMEscan: PIK3CA(E545K) (panel of 442 kinases [3])	KINOMEscan: LIMK2 (panel of 442 kinases [4])
COc1cc(C(=O)N2CCC(N3CCN(C)CC3)CC2)ccc1Nc1ncc2c(n1)N(C)c1ccccc1C(=O)N2C [15 (LRRK2-IN-1)]	96	92	100 % Ctrl	100	100
COc1cc(C(=O)N2CCC(N3CCN(C)CC3)CC2)ccc1Nc1ncc2c(n1)N1CCc3cccc(c31)C(=O)N2C [Compound 24]		43	100 % Ctrl		
COc1cc(C(=O)N2CCC(N3CCN(C)CC3)CC2)ccc1Nc1ncc2c(n1)N(C1CCCC1)c1ccccc1C(=O)N2C [Compound 25, 11-cyclopentyl-2-((2-methoxy-4-(4-(4-methylpiperazin-1-yl)piperidine-1-carbonyl)phenyl)amino)-5-methyl-5H-benzo[e]pyrimido[5,4-b][1,4]diazepin-6(11H)-one]	100	100	100 % Ctrl	100	100
CCOc1cc(C(=O)N2CCC(N3CCN(C)CC3)CC2)ccc1Nc1ncc2c(n1)N(C1CCCC1)c1ccccc1C(=O)N2C [Compound 26]	100	86	100 % Ctrl	100	100
